Results on seven compounds are retold here after PMC10834624, “Estrogen receptor α interaction of zearalenone and its phase I metabolite α-zearalenol in combination with soy isoflavones in hERα-HeLa-9903 cells” (Mycotoxin Research, 2023).

Read-outs that look alike come from different tables or passages of the source.

Series [1] deals with Ishikawa cells, expressing ERα and ERβ. Conditions: 0.001–0.01 nM with GEN, DAI or EQ 0.001–0.1 µM; ref Grgic et al. [2022]; cited from earlier work.
The target of series [2] is T1, ERα (hERα-HeLa-9903 cells) (Homo sapiens, UniProt P03372).
T1 construct: host or cells: hERα-HeLa-9903 (modified human cervical HeLa cell line)
The experiment in a line: cell-based. It counts as cell-based. The settings on record: for induced ERα-dependent luciferase expression in concentrations above: abstract; for concentration at which an increase in luciferase activity was initiated: discussion; for Luciferase induction: 1 nM E2=100%. As to the method:
The assays were performed in 96-well plates following the instructions of the manufacturer (Promega [2007]). Per well, 10,000 hERα-HeLa-9903 cells in assay medium were seeded and grown for 3 h. […] The substances were previously dissolved in DMSO in […] higher concentrations than the tested concentration, followed by dilution in the assay medium. In case of single substance testing and for the solvent control, DMSO was added to reach 0.1% in the final incubation solutions. Concentrations ranged from 0.001 to 100 nM in case of ZEN and its metabolites and 0.001 to 100 µM in case of ISF, with 1:10 dilution steps in between. […] All experiments were performed in technical triplicates and at least five independent biological replicates.
Following the 24-h incubation, the supernatants were discarded and 100 µL of a ONE-Glo™ EX luciferase incubation solution (1:1 dilution of OGL reagent and EMEM (5% CD-FBS)) was added and shaken for 5 min. Subsequently, 90 µL of the supernatant of each well was transferred to a new, white 96-well plate. The luminescence of the white plate was directly measured with a gain of 140 using the Victor V3 1240 Multilabel Counter from Perkin Elmer (Waltham/MA, USA) or the Cytation 3 Cell Imaging Multi-Mode Reader from Biotek® (Winooski/VT, USA).

The test system of series [3] is hERα-HeLa-9903 cells.
For series [4], the system named is firefly luciferase encoding gene (hERα-HeLa-9903 cells). The experiment in a line: RT-qPCR of luciferase mRNA. It counts as cell-based, human. The settings on record: 10 nM, 24 h. As to the method: For the RT-qPCR, cells (hERα-HeLa-9903) were seeded in assay medium in 12-well plates at a density of 150,000 cells and allowed to grow for 24 h. Incubation solutions contained 0.1% DMSO and the test compounds and compound mixtures at various concentrations. After the same incubation time as the OGL-assay (24 h), cells were washed and subsequently the total RNA was extracted following the RNeasy Mini Kit protocol from Qiagen. The following reverse transcription was performed according to the QuantiTect-Reverse-Transcription manual (Qiagen [2009]) to transcribe 1 µg RNA to cDNA. Then, RT-qPCR was performed using primers for the firefly luciferase encoding gene with the following oligonucleotide sequences for reverse primer 5′-[…]-3′ and forward primer 5′-[…]-3′, as well as the endogenous control primers delta-aminolevulinate synthase (1HS_ALAS1_1_SG, QT00073122), actin beta (Hs_ACTB_1_SG, QT00095431) and glyceraldehyde-3-phosphate dehydrogenase (Hs_GAPDH_1_SG, QT00079247) with SYBR green as fluorescent probe. The amplification the following setting was applied: 95 °C for 2 min, followed by 40 repetition cycles of: 95 °C (15 s), 55 °C (15 s), 72 °C (60 s). […] Quantification was performed according to Livak and Schmittgen ([2001]) using the 2-ΔΔCt method resulting in the depiction of fold-changes in comparison to the solvent control.

Series [5] deals with hERα-HeLa-9903 cells. The series is described as follows: Sulforhodamine B (SRB) assay, cell protein amount. It counts as cell-based, human. The settings on record: 10 µM 4-OH-TAM, 24 h. The procedure:
The SRB assay was conducted immediately after the CTB assay. Following the removal of the remaining CTB solution the cells in each well were fixed with 10 µL of a 50% trichloroacetic acid solution in distilled water. The 96-well plates were placed for 1 h into the refrigerator at 4 °C. Upon this cold incubation, the plates were carefully rinsed twice with tap water and then left to dry in a dark surrounding. Once the plates had dried, 50 µL of the SRB solution was pipetted into each well. The dye was left to stain the proteins for 1 h, again in a dark setting at room temperature. Afterwards the dye was rinsed off twice with tap water and twice with a 1% acetic acid solution. […] Once the plates had dried, the SRB solution bound to the protein components of the cells was dissolved in 100 µL of an alkaline Tris base solution (0.30 g tris(hydroxymethyl-) aminomethane solved in 250 mL distilled water) by shaking for 5 min in the plate reader (Victor V3 1240 Multilabel Counter from Perkin Elmer (Waltham/MA, USA) or the Cytation 3 Cell Imaging Multi-Mode Reader from Biotek® (Winooski/VT Vermont, USA)). Subsequently, the absorbance was measured at 570 nm and as for the CTB; the final results were referred to the solvent control (0.1% DMSO) in percentage.
For orientation: Sulforhodamine B stains cellular protein and so reports cell mass.

The mark [6] stands for this setting: single mycoestrogen 100 nM, 24 h.

T1 sequence (P03372 whole entry): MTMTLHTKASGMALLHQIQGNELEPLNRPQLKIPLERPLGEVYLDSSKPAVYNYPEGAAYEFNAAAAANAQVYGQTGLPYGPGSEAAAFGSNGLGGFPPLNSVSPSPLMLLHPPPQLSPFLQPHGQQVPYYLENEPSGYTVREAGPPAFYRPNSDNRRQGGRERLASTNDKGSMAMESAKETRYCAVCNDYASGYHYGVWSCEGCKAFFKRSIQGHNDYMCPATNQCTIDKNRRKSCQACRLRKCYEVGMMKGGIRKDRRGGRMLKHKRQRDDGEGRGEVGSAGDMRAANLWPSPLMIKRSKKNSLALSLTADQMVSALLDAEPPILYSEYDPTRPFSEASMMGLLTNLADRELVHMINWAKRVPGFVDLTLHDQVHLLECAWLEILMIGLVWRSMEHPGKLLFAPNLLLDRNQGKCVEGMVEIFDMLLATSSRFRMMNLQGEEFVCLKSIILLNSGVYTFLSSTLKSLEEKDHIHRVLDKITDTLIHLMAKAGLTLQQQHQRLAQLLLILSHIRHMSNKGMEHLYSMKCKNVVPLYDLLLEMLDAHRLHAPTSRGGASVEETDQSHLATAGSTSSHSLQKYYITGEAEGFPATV

For the compound `C[C@H]1CCC[C@H](O)CCCCCc2cc(O)cc(O)c2C(=O)O1` [α-zearalanol], in series [1], the “estrogenic response in combination compared to single substances” value is listed as “significantly enhanced the estrogenic response”.

Take `O=c1c(-c2ccc(O)cc2)coc2cc(O)ccc12` [DAI, daidzein]: the “transcriptional activity compared to E2 after calculating the difference between 4-OH-TAM treated and untreated samples” value in series [2] is “higher transcriptional activity”. In the series with hERα-HeLa-9903 cells [3], the “metabolic activity (CTB) vs solvent control” value is “no significant difference was observed”.

Turning to `C[C@H]1CCCC(=O)CCC/C=C/c2cc(O)cc(O)c2C(=O)O1` [ZEN, zearalenone], in series [2], the EC50 (as a rule, the concentration that produces a half-maximal response) worked out at 24.4 ± 0.4 nM; the “induced ERα-dependent luciferase expression in concentrations above” value was “above 1 nM”; the “concentration at which an increase in luciferase activity was initiated” value worked out at 0.1 nM. The Luciferase induction in series [2] (setting [6]) is listed as 86%. For the same compound, in series [4], the “luciferase mRNA levels” value is given as “induce luciferase mRNA levels significantly”. The “estrogenic response in combination compared to single substances” value in series [1] is listed as “significantly enhanced the estrogenic response”.

With `O=c1c(-c2ccc(O)cc2)coc2cc(O)cc(O)c12` [GEN, genistein], the “metabolic activity (CTB) vs solvent control” value in the series on hERα-HeLa-9903 cells [3] is “no significant difference was observed”.

On to `CC/C(=C(\c1ccc(O)cc1)c1ccc(OCCN(C)C)cc1)c1ccccc1` [4-OH-TAM, (Z)-4-hydroxytamoxifen], for which the “protein content (SRB)” value in the series on hERα-HeLa-9903 cells [5] is “tendency to decrease the protein content”.

`C[C@H]1CCC[C@H](O)CCC/C=C/c2cc(O)cc(O)c2C(=O)O1` [α-ZEL, α-zearalenol]: in series [2] (0.01 to 10 nM), the “potency to induce luciferase compared to ZEN” value is recorded as “higher potency”. Also, in series [2], the “induced ERα-dependent luciferase expression in concentrations above” value is over 10 pM and the “concentration at which an increase in luciferase activity was initiated” value is reported as 0.01 nM. Besides, in series [2] (mycoestrogens, 24 h, read-out: EC50 (sigmoidal dose-response curve fit of luciferase induction)), the EC50 turned out to be 0.057 ± 0.004 nM. The same compound registered a Luciferase induction in series [2] (setting [6]) of 95%. For the same compound, in series [1], the “estrogenic response in combination compared to single substances” value is recorded as “significantly enhanced the estrogenic response”.

With `Oc1ccc([C@H]2COc3cc(O)ccc3C2)cc1` [EQ, S-equol], the half-maximal effective concentration (EC50) in series [2] (isoflavones, 24 h, read-out: EC50 (sigmoidal dose-response curve fit of luciferase induction)) worked out at 1600 ± 200 nM. This compound also displayed a Luciferase induction in series [2] (single isoflavone 10 μM, 24 h) of 334%. In addition, in the series on hERα-HeLa-9903 cells [3], the “metabolic activity (CTB) vs solvent control” value was “no significant difference was observed”.
